Test results as given in patent US20240208992A1, “MACROCYCLES AS CFTR MODULATORS” (Idorsia Pharmaceuticals Ltd, priority 2021, published 2024).

Target: human F508del-CFTR (Homo sapiens, UniProt P13569, DEL508-508)
Assay: F508del-CFTR cell surface expression (corrector activity), DiscoveRx ß-galactosidase complementation chemiluminescence assay in recombinant U2OS cell line;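 note: U2OS cells co-expressing ProLink-tagged F508del-CFTR and a membrane-anchored enzyme acceptor, where more surface CFTR restores β-galactosidase activity measured by chemiluminescence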
Settings: U2OS cell line, 16h compound incubation; for EC50: EC50, F508del-CFTR cell surface expression, geomean values; for Emax: U2OS, in relation to the Emax of the corrector lumacaftor (=100%), arithmetic mean values

Chain of human F508del-CFTR (P13569 with tags, fused parts or gaps DEL508-508): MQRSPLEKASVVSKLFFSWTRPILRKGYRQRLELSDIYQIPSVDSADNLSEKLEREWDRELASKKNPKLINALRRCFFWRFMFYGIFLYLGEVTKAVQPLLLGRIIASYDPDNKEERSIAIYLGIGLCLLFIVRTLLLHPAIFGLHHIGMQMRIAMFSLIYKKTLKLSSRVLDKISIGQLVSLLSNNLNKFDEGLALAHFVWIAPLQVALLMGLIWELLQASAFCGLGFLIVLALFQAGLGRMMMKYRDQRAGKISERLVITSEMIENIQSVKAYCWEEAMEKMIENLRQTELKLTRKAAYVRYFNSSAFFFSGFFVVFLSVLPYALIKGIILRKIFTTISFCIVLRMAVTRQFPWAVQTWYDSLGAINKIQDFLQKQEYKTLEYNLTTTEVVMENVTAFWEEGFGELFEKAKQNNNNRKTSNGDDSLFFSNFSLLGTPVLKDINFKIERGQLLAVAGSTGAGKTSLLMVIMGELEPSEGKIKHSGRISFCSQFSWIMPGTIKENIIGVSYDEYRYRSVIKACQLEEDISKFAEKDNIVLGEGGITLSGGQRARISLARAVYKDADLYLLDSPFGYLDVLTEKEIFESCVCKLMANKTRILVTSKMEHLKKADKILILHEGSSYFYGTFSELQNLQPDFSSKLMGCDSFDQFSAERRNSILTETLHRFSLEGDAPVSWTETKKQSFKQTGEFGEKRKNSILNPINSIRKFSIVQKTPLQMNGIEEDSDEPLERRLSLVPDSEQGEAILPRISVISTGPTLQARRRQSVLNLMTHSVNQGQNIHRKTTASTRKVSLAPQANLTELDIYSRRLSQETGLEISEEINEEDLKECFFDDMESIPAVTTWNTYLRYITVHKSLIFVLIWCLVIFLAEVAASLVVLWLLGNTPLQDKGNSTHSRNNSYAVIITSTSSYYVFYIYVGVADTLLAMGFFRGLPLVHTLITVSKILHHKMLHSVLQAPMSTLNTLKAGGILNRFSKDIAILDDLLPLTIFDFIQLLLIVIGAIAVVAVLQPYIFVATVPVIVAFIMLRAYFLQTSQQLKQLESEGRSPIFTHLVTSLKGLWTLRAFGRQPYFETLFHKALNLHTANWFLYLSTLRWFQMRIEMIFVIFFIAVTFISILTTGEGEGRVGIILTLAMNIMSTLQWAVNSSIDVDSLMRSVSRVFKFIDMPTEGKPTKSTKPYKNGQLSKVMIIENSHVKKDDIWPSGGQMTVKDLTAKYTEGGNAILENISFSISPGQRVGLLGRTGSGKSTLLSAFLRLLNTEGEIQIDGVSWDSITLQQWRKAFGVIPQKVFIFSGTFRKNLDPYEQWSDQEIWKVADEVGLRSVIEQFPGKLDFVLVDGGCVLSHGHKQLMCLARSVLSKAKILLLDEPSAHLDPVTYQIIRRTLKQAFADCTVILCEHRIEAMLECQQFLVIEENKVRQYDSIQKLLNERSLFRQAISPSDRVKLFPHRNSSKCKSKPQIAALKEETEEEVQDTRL

SMILES | EC50 [nM] | Emax [%]
COc1cccc2c1C(=O)N[C@H](C(=O)NCCc1ccc3c(c1)OCO3)CC(=O)N(C)[C@@H](CC1CCCC1)C(=O)N(C[C@@H]1CCCCO1)CC(=O)N[C@H](Cc1ccccc1)CO2 [Example 308, (3R,9S,13S)-N-(2-(benzo[d][1,3]dioxol-5-yl)ethyl)-3-benzyl-9-(cyclopentylmethyl)-16-methoxy-10-methyl-5,8,11,15-tetraoxo-7-(((S)-tetrahydro-2H-pyran-2-yl)methyl)-2,3,4,5,6,7,8,9,10,11,12,13,14,15-tetradecahydrobenzo[p][1]oxa[4,7,10,14]tetraazacycloheptadecine-13-carboxamide] | 469 | 103
COc1cccc2c1C(=O)N[C@H](C(=O)NCCc1ccc3c(c1)OCO3)CC(=O)N(C)[C@@H](CC1CCCCC1)C(=O)N(C[C@@H]1CCCCO1)CC(=O)N[C@H](Cc1ccccc1)CO2 [Example 309, (3R,9S,13S)-N-(2-(benzo[d][1,3]dioxol-5-yl)ethyl)-3-benzyl-9-(cyclohexylmethyl)-16-methoxy-10-methyl-5,8,11,15-tetraoxo-7-(((S)-tetrahydro-2H-pyran-2-yl)methyl)-2,3,4,5,6,7,8,9,10,11,12,13,14,15-tetradecahydrobenzo[p][1]oxa[4,7,10,14]tetraazacycloheptadecine-13-carboxamide] | 456 | 113
COc1cccc(CCNC(=O)[C@@H]2CC(=O)N(C)[C@@H](CC(C)C)C(=O)N(C[C@H]3CCCCO3)CC(=O)N[C@H](Cc3ccccc3)COc3cccc(OC)c3C(=O)N2)c1 [Example 311, (3R,9S,13S)-3-benzyl-9-isobutyl-16-methoxy-N-(3-methoxyphenethyl)-10-methyl-5,8,11,15-tetraoxo-7-(((R)-tetrahydro-2H-pyran-2-yl)methyl)-2,3,4,5,6,7,8,9,10,11,12,13,14,15-tetradecahydrobenzo[p][1]oxa[4,7,10,14]tetraazacycloheptadecine-13-carboxamide] | 454 | 127
COc1cccc(CCNC(=O)[C@@H]2CC(=O)N(C)[C@@H](CC(C)C)C(=O)N(C[C@@H]3CCCCO3)CC(=O)N[C@H](Cc3ccccc3)COc3cccc(OC)c3C(=O)N2)c1 [Example 312, (3R,9S,13S)-3-benzyl-9-isobutyl-16-methoxy-N-(3-methoxyphenethyl)-10-methyl-5,8,11,15-tetraoxo-7-(((S)-tetrahydro-2H-pyran-2-yl)methyl)-2,3,4,5,6,7,8,9,10,11,12,13,14,15-tetradecahydrobenzo[p][1]oxa[4,7,10,14]tetraazacycloheptadecine-13-carboxamide] | 727 | 111
COc1cccc(CCNC(=O)[C@@H]2CC(=O)N(C)[C@@H](CC3CCCC3)C(=O)N(C[C@H]3CCCCO3)CC(=O)N[C@H](Cc3ccccc3)COc3cccc(OC)c3C(=O)N2)c1 [Example 313, (3R,9S,13S)-3-benzyl-9-(cyclopentylmethyl)-16-methoxy-N-(3-methoxyphenethyl)-10-methyl-5,8,11,15-tetraoxo-7-(((R)-tetrahydro-2H-pyran-2-yl)methyl)-2,3,4,5,6,7,8,9,10,11,12,13,14,15-tetradecahydrobenzo[p][1]oxa[4,7,10,14]tetraazacycloheptadecine-13-carboxamide] | 313 | 119
COc1cccc(CCNC(=O)[C@@H]2CC(=O)N(C)[C@@H](CC3CCCCC3)C(=O)N(C[C@@H]3CCCCO3)CC(=O)N[C@H](Cc3ccccc3)COc3cccc(OC)c3C(=O)N2)c1 [Example 314, (3R,9S,13S)-3-benzyl-9-(cyclohexylmethyl)-16-methoxy-N-(3-methoxyphenethyl)-10-methyl-5,8,11,15-tetraoxo-7-(((S)-tetrahydro-2H-pyran-2-yl)methyl)-2,3,4,5,6,7,8,9,10,11,12,13,14,15-tetradecahydrobenzo[p][1]oxa[4,7,10,14]tetraazacycloheptadecine-13-carboxamide] | 469 | 111
COc1cccc(CCNC(=O)[C@@H]2CC(=O)N(C)[C@@H](CC(C)C)C(=O)N(CCC3CCCCC3)CC(=O)N[C@H](Cc3ccccc3)COc3cnc4ccccc4c3C(=O)N2)c1 [Example 315, (3S,7S,13R)-13-benzyl-9-(2-cyclohexylethyl)-7-isobutyl-N-(3-methoxyphenethyl)-6-methyl-1,5,8,11-tetraoxo-1,2,3,4,5,6,7,8,9,10,11,12,13,14-tetradecahydro-[1]oxa[4,7,10,14]tetraazacycloheptadecino[17,16-c]quinoline-3-carboxamide] | 115 | 349
[2H]C([2H])([2H])Oc1cccc(CCNC(=O)[C@@H]2CC(=O)N(C)[C@@H](CC(C)C)C(=O)N(CCC3CCCCC3)CC(=O)N[C@H](Cc3ccccc3)COc3cnc4ccccc4c3C(=O)N2)c1 [Example 316, (3S,7S,13R)-13-benzyl-9-(2-cyclohexylethyl)-7-isobutyl-N-(3-(methoxy-d3)phenethyl)-6-methyl-1,5,8,11-tetraoxo-1,2,3,4,5,6,7,8,9,10,11,12,13,14-tetradecahydro-[1]oxa[4,7,10,14]tetraazacycloheptadecino[17,16-c]quinoline-3-carboxamide] | 55 | 343
COc1cccc(CCNC(=O)[C@@H]2CC(=O)N(C)[C@@H](CC(C)C)C(=O)N(C)CC(=O)N[C@H](Cc3ccccc3)COc3cccc(OC(F)(F)F)c3C(=O)N2)c1 [Example 317, (3R,9S,13S)-3-benzyl-9-isobutyl-N-(3-methoxyphenethyl)-7,10-dimethyl-5,8,11,15-tetraoxo-16-(trifluoromethoxy)-2,3,4,5,6,7,8,9,10,11,12,13,14,15-tetradecahydrobenzo[p][1]oxa[4,7,10,14]tetraazacycloheptadecine-13-carboxamide] | 661 | 89
CC(C)C[C@H]1C(=O)N(C)CC(=O)N[C@H](Cc2ccccc2)COc2cnc3ccccc3c2C(=O)N[C@H](C(=O)NCCc2ccc3c(c2)OCO3)CC(=O)N1C [Example 318, (3S,7S,13R)-N-(2-(benzo[d][1,3]dioxol-5-yl)ethyl)-13-benzyl-7-isobutyl-6,9-dimethyl-1,5,8,11-tetraoxo-1,2,3,4,5,6,7,8,9,10,11,12,13,14-tetradecahydro-[1]oxa[4,7,10,14]tetraazacycloheptadecino[17,16-c]quinoline-3-carboxamide] | 679 | 295
COc1cccc(CCNC(=O)[C@@H]2CC(=O)N(C)[C@@H](CC(C)C)C(=O)N(C)CC(=O)N[C@H](Cc3ccccc3)COc3cnc4ccccc4c3C(=O)N2)c1 [Example 319, (3S,7S,13R)-13-benzyl-7-isobutyl-N-(3-methoxyphenethyl)-6,9-dimethyl-1,5,8,11-tetraoxo-1,2,3,4,5,6,7,8,9,10,11,12,13,14-tetradecahydro-[1]oxa[4,7,10,14]tetraazacycloheptadecino[17,16-c]quinoline-3-carboxamide] | 574 | 296
[2H]C([2H])([2H])Oc1cccc(CCNC(=O)[C@@H]2CC(=O)N(C)[C@@H](CC(C)C)C(=O)N(C)CC(=O)N[C@H](Cc3ccccc3)COc3cnc4ccccc4c3C(=O)N2)c1 [Example 320, (3S,7S,13R)-13-benzyl-7-isobutyl-N-(3-(methoxy-d3)phenethyl)-6,9-dimethyl-1,5,8,11-tetraoxo-1,2,3,4,5,6,7,8,9,10,11,12,13,14-tetradecahydro-[1]oxa[4,7,10,14]tetraazacycloheptadecino[17,16-c]quinoline-3-carboxamide] | 363 | 297
CC(C)C[C@H]1C(=O)N(C)CC(=O)N[C@H](Cc2ccccc2)COc2ccc3c(c2C(=O)N[C@H](C(=O)NCCc2ccc4c(c2)OCO4)CC(=O)N1C)OCO3 [Example 321, (8R,14S,18S)-N-(2-(benzo[d][1,3]dioxol-5-yl)ethyl)-8-benzyl-14-isobutyl-12,15-dimethyl-10,13,16,20-tetraoxo-7,8,9,10,11,12,13,14,15,16,17,18,19,20-tetradecahydro-[1,3]dioxolo[4′,5′:5,6]benzo[1,2-p][1]oxa[4,7,10,14]tetraazacycloheptadecine-18-carboxamide] | 816 | 266
[2H]C1([2H])Oc2ccc3c(c2O1)C(=O)N[C@H](C(=O)NCCc1ccc2c(c1)OCO2)CC(=O)N(C)[C@@H](CC(C)C)C(=O)N(C)CC(=O)N[C@H](Cc1ccccc1)CO3 [Example 322, (8R,14S,18S)-N-(2-(benzo[d][1,3]dioxol-5-yl)ethyl)-8-benzyl-14-isobutyl-12,15-dimethyl-10,13,16,20-tetraoxo-7,8,9,10,11,12,13,14,15,16,17,18,19,20-tetradecahydro-[1,3]dioxolo[4′,5′:5,6]benzo[1,2-p][1]oxa[4,7,10,14]tetraazacycloheptadecine-2,2-d2-18-carboxamide] | 504 | 197
COc1cccc(CCNC(=O)[C@@H]2CC(=O)N(C)[C@@H](CC(C)C)C(=O)N(C)CC(=O)N[C@H](Cc3ccccc3)COc3ccc4c(c3C(=O)N2)OCO4)c1 [Example 323, (8R,14S,18S)-8-benzyl-14-isobutyl-N-(3-methoxyphenethyl)-12,15-dimethyl-10,13,16,20-tetraoxo-7,8,9,10,11,12,13,14,15,16,17,18,19,20-tetradecahydro-[1,3]dioxolo[4′,5′:5,6]benzo[1,2-p][1]oxa[4,7,10,14]tetraazacycloheptadecine-18-carboxamide] | 742 | 258
[2H]C1([2H])Oc2ccc3c(c2O1)C(=O)N[C@H](C(=O)NCCc1cccc(OC)c1)CC(=O)N(C)[C@@H](CC(C)C)C(=O)N(C)CC(=O)N[C@H](Cc1ccccc1)CO3 [Example 324, (8R,14S,18S)-8-benzyl-14-isobutyl-N-(3-methoxyphenethyl)-12,15-dimethyl-10,13,16,20-tetraoxo-7,8,9,10,11,12,13,14,15,16,17,18,19,20-tetradecahydro-[1,3]dioxolo[4′,5′:5,6]benzo[1,2-p][1]oxa[4,7,10,14]tetraazacycloheptadecine-2,2-d2-18-carboxamide] | 666 | 247
